Measurements: ChEMBL document CHEMBL4138123, “Design, synthesis and biological evaluation of novel pyrazolochalcones as potential modulators of PI3K/Akt/mTOR pathway and inducers of apoptosis in breast cancer cells” (Eur J Med Chem, 2017)

Tests used:
Type in all cases: functional
[1] = test system: K562; assay: Cytotoxicity against human K562 cells assessed as growth inhibition after 48 hrs by sulforhodamine B assay; settings: K562, 48 h
[2] = test system: A549; assay: Cytotoxicity against human A549/ATCC cells assessed as growth inhibition after 48 hrs by sulforhodamine B assay; settings: A549, 48 h
[3] = test system: HCT-116; assay: Cytotoxicity against human HCT116 cells assessed as growth inhibition after 48 hrs by sulforhodamine B assay; settings: HCT-116, 48 h
[4] = test system: Malme-3M; assay: Cytotoxicity against human MALME-3M cells assessed as growth inhibition after 48 hrs by sulforhodamine B assay
[5] = test system: M14; assay: Cytotoxicity against human M14 cells assessed as growth inhibition after 48 hrs by sulforhodamine B assay; settings: M14, 48 h
[6] = test system: OVCAR-8; assay: Cytotoxicity against human OVCAR8 cells assessed as growth inhibition after 48 hrs by sulforhodamine B assay; settings: OVCAR-8, 48 h
[7] = test system: CCRF-CEM; assay: Cytotoxicity against human CCRF-CEM cells assessed as cell growth at 0.01 uM after 48 hrs by sulforhodamine B assay relative to control; settings: read-out: Activity
[8] = test system: MDA-MB-435; assay: Cytotoxicity against human MDA-MB-435 cells assessed as cell growth at 0.01 uM after 48 hrs by sulforhodamine B assay relative to control; settings: MDA-MB-435, 48 h, read-out: Activity
[9] = test system: SF-268; assay: Cytotoxicity against human SF268 cells assessed as cell growth at 0.01 uM after 48 hrs by sulforhodamine B assay relative to control; settings: SF-268, 48 h, read-out: Activity
[10] = test system: HT-29; assay: Cytotoxicity against human HT-29 cells assessed as cell growth at 0.01 uM after 48 hrs by sulforhodamine B assay relative to control; settings: HT-29, 48 h, read-out: Activity
[11] = test system: A549; assay: Cytotoxicity against human A549/ATCC cells assessed as cell growth at 0.01 uM after 48 hrs by sulforhodamine B assay relative to control; settings: A549, 48 h, read-out: Activity
[12] = test system: RPMI-8226; assay: Cytotoxicity against human RPMI8226 cells assessed as cell growth at 0.01 uM after 48 hrs by sulforhodamine B assay relative to control; settings: RPMI-8226, 48 h, read-out: Activity
[13] = test system: PC-3; assay: Cytotoxicity against human PC3 cells assessed as cell growth at 0.01 uM after 48 hrs by sulforhodamine B assay relative to control; settings: PC-3, 48 h, read-out: Activity
[14] = test system: HCT-15; assay: Cytotoxicity against human HCT15 cells assessed as cell growth at 0.1 uM after 48 hrs by sulforhodamine B assay relative to control; settings: HCT-15, 48 h, read-out: Activity
[15] = test system: HT-29; assay: Cytotoxicity against human HT-29 cells assessed as cell growth at 0.1 uM after 48 hrs by sulforhodamine B assay relative to control; settings: HT-29, 48 h, read-out: Activity
[16] = test system: SK-MEL-28; assay: Cytotoxicity against human SK-MEL-28 cells assessed as cell growth at 0.1 uM after 48 hrs by sulforhodamine B assay relative to control; settings: SK-MEL-28, 48 h, read-out: Activity
[17] = test system: MDA-MB-468; assay: Cytotoxicity against human MDA-MB-468 cells assessed as cell growth at 0.1 uM after 48 hrs by sulforhodamine B assay relative to control; settings: MDA-MB-468, 48 h, read-out: Activity
[18] = test system: CCRF-CEM; assay: Cytotoxicity against human CCRF-CEM cells assessed as cell growth at 1 uM after 48 hrs by sulforhodamine B assay relative to control; settings: read-out: Activity
[19] = test system: NCI-H460; assay: Cytotoxicity against human NCI-H460 cells assessed as cell growth at 1 uM after 48 hrs by sulforhodamine B assay relative to control; settings: NCI-H460, 48 h, read-out: Activity
[20] = test system: SW-620; assay: Cytotoxicity against human SW620 cells assessed as cell growth at 1 uM after 48 hrs by sulforhodamine B assay relative to control; settings: SW-620, 48 h, read-out: Activity
[21] = test system: UACC-257; assay: Cytotoxicity against human UACC257 cells assessed as cell growth at 1 uM after 48 hrs by sulforhodamine B assay relative to control; settings: UACC-257, 48 h, read-out: Activity
[22] = test system: OVCAR-8; assay: Cytotoxicity against human OVCAR8 cells assessed as cell growth at 1 uM after 48 hrs by sulforhodamine B assay relative to control; settings: OVCAR-8, 48 h, read-out: Activity
[23] = test system: NCI-H226; assay: Cytotoxicity against human NCI-H226 cells assessed as cell growth at 10 uM after 48 hrs by sulforhodamine B assay relative to control; settings: NCI-H226, 48 h, read-out: Activity
[24] = test system: SW-620; assay: Cytotoxicity against human SW620 cells assessed as cell growth at 10 uM after 48 hrs by sulforhodamine B assay relative to control; settings: SW-620, 48 h, read-out: Activity
[25] = test system: U-251; assay: Cytotoxicity against human U251 cells assessed as cell growth at 10 uM after 48 hrs by sulforhodamine B assay relative to control; settings: U-251, 48 h, read-out: Activity
[26] = test system: Malme-3M; assay: Cytotoxicity against human MALME-3M cells assessed as cell growth at 10 uM after 48 hrs by sulforhodamine B assay relative to control; settings: read-out: Activity
[27] = test system: OVCAR-8; assay: Cytotoxicity against human OVCAR8 cells assessed as cell growth at 10 uM after 48 hrs by sulforhodamine B assay relative to control; settings: OVCAR-8, 48 h, read-out: Activity
[28] = test system: DU-145; assay: Cytotoxicity against human DU145 cells assessed as cell growth at 10 uM after 48 hrs by sulforhodamine B assay relative to control; settings: DU-145, 48 h, read-out: Activity
[29] = test system: RPMI-8226; assay: Cytotoxicity against human RPMI8226 cells assessed as cell growth at 100 uM after 48 hrs by sulforhodamine B assay relative to control; settings: RPMI-8226, 48 h, read-out: Activity
[30] = test system: NCI-H226; assay: Cytotoxicity against human NCI-H226 cells assessed as cell growth at 100 uM after 48 hrs by sulforhodamine B assay relative to control; settings: NCI-H226, 48 h, read-out: Activity
[31] = test system: COLO 205; assay: Cytotoxicity against human COLO205 cells assessed as cell growth at 100 uM after 48 hrs by sulforhodamine B assay relative to control; settings: COLO 205, 48 h, read-out: Activity
[32] = test system: HCT-116; assay: Cytotoxicity against human HCT116 cells assessed as cell growth at 100 uM after 48 hrs by sulforhodamine B assay relative to control; settings: HCT-116, 48 h, read-out: Activity
[33] = test system: SF-539; assay: Cytotoxicity against human SF539 cells assessed as cell growth at 100 uM after 48 hrs by sulforhodamine B assay relative to control; settings: SF-539, 48 h, read-out: Activity
[34] = test system: SNB-19; assay: Cytotoxicity against human SNB19 cells assessed as cell growth at 100 uM after 48 hrs by sulforhodamine B assay relative to control; settings: SNB-19, 48 h, read-out: Activity
[35] = test system: Malme-3M; assay: Cytotoxicity against human MALME-3M cells assessed as cell growth at 100 uM after 48 hrs by sulforhodamine B assay relative to control; settings: read-out: Activity
[36] = test system: SN12C; assay: Cytotoxicity against human SN12C cells assessed as cell growth at 100 uM after 48 hrs by sulforhodamine B assay relative to control; settings: read-out: Activity

SMILES: COc1ccc(C(=O)/C=C/c2cc(-c3cc(OC)c(OC)c(OC)c3)n[nH]2)cc1
- LC50 (concentration killing 50% of cells) [1]: > 100 µM
- LC50 (concentration giving 50% net cell kill) [2]: > 100 µM
- LC50 [3]: > 100 µM
- TGI [3]: 5.86 µM
- TGI [4]: 3.85 µM
- LC50 (concentration killing 50% of cells) [5]: > 100 µM
- TGI [5]: 4.93 µM
- LC50 [6]: > 100 µM
- TGI [6]: 8.26 µM
- growth at 0.01 µM [7]: 99%
- growth at 0.01 µM [8]: 99%
- growth at 0.01 µM [9]: 91%
- growth at 0.01 µM [10]: 102%
- growth at 0.01 µM [11]: 98%
- growth at 0.01 µM [12]: 98%
- growth at 0.01 µM [13]: 99%
- growth at 0.1 µM [14]: 100%
- growth at 0.1 µM [15]: 102%
- growth at 0.1 µM [16]: 104%
- growth at 0.1 µM [17]: 88%
- growth at 1 µM [18]: 62%
- growth at 1 µM [19]: 85%
- growth at 1 µM [20]: 82%
- growth at 1 µM [21]: 87%
- growth at 1 µM [22]: 86%
- growth at 10 µM [23]: -59%
- growth at 10 µM [24]: -69%
- growth at 10 µM [25]: -98%
- growth at 10 µM [26]: -66%
- growth at 10 µM [27]: -8%
- growth at 10 µM [28]: -93%
- growth at 100 µM [29]: -34%
- growth at 100 µM [30]: -35%
- growth at 100 µM [31]: -81%
- growth at 100 µM [32]: -10%
- growth at 100 µM [33]: -92%
- growth at 100 µM [34]: -6%
- growth at 100 µM [35]: -2%
- growth at 100 µM [36]: 7%
